{"source": "patent US8501752B2", "about": "“Methods for treating cancer and other pathological proliferating disorders by inhibiting mitosis using pyrrolo[2,3-d]pyrimidines” (Duquesne University of the Holy Ghost, priority 2005, dated 2013)", "assay_type_in_all_cases": "cell-based, human", "key": {"[1]": {"tested_on": "MCF7", "experiment": "NCI IVCLSP growth inhibition (SRB), MCF7", "settings": "48 h drug incubation", "description": "(§1) FIG. 1 presents nine compounds that were tested using the National Cancer Institute (NCI) 60 human tumor cell lines. The cells lines, which represent leukemia, melanoma, and cancers of the lung, colon, brain, ovary, breast, prostate, and kidney, are listed in Table 1.\n(§2) Compounds 1-9 were tested according to the NCI Developmental Therapeutics Program (DTP) In Vitro Cell Line Screening Project (IVCLSP). […] Methodology for testing under the IVCLSP is as follows: The human tumor cell lines of the cancer screening panel are grown in RPMI 1640 medium containing 5% fetal bovine serum and 2 mM L-glutamine. […]\n(§3) Following drug addition, the plates are incubated for an additional 48 h at 37° C., 5% CO2, 95% air, and 100% relative humidity. […] Bound stain is subsequently solubilized with 10 mM trizma base, and the absorbance is read on an automated plate reader at a wavelength of 515 nm. […] Using the seven absorbance measurements [time zero, (Tz), control growth, (C), and test growth in the presence of drug at the five concentration levels (Ti)], the percentage growth is calculated at each of the drug concentrations levels. Percentage growth inhibition is calculated as: [(Ti−Tz)/(C−Tz)]×100 for concentrations for which Ti>/=Tz [(Ti−Tz)/Tz]×100 for concentrations for which Ti<Tz.\n(§4) Three dose response parameters are calculated for each experimental agent. […]"}, "[2]": {"tested_on": "p53", "experiment": "Western blot, p53 expression in MCF-7 cells", "settings": "24 hours, various concentrations", "description": "To further characterize the cell cycle effects of Compound 1 on human tumor cells, MCF-7 cells were treated for 24 hours with various concentrations of Compound 1, vinblastine, or TAXOL (paclitaxel). Cells were then harvested, lysed, and analyzed for levels of expression of p53 and WAF1 by Western Blot analyses. […] Compound 1 is identified as “149” in these figures. […] None of these treatments affected the expression of bcl-2 or P-tubulin in the MCF-7 cells."}, "[3]": {"tested_on": "NCI-H460", "experiment": "NCI IVCLSP growth inhibition (SRB), NCI-H460", "settings": "48 h drug incubation", "description": "as §1, §2, §3, §4"}, "[4]": {"tested_on": "MALME-3M", "experiment": "NCI IVCLSP growth inhibition (SRB), MALME-3M", "settings": "48 h drug incubation", "description": "as §1, §2, §3, §4"}, "[5]": {"tested_on": "OVCAR-3", "experiment": "NCI IVCLSP growth inhibition (SRB), OVCAR-3", "settings": "48 h drug incubation", "description": "as §1, §2, §3, §4"}, "[6]": {"tested_on": "786-0", "experiment": "NCI IVCLSP growth inhibition (SRB), 786-0", "settings": "48 h drug incubation", "description": "as §1, §2, §3, §4"}, "[7]": {"tested_on": "MDA-MB-231/ATCC", "experiment": "NCI IVCLSP growth inhibition (SRB), MDA-MB-231/ATCC", "settings": "48 h drug incubation", "description": "as §1, §2, §3, §4"}, "[8]": {"tested_on": "SNB-19", "experiment": "NCI IVCLSP growth inhibition (SRB), SNB-19", "settings": "48 h drug incubation", "description": "as §1, §2, §3, §4"}, "[9]": {"tested_on": "A549/ATCC", "experiment": "NCI IVCLSP growth inhibition (SRB), A549/ATCC", "settings": "48 h drug incubation", "description": "as §1, §2, §3, §4"}, "[10]": {"tested_on": "PC-3", "experiment": "NCI IVCLSP growth inhibition (SRB), PC-3", "settings": "48 h drug incubation", "description": "as §1, §2, §3, §4"}, "[11]": {"tested_on": "MDA-MB-435", "experiment": "NCI IVCLSP growth inhibition (SRB), MDA-MB-435", "settings": "48 h drug incubation", "description": "as §1, §2, §3, §4"}, "[12]": {"tested_on": "T-47D", "experiment": "NCI IVCLSP growth inhibition (SRB), T-47D", "settings": "48 h drug incubation", "description": "as §1, §2, §3, §4"}, "[13]": {"tested_on": "HCT-116", "experiment": "NCI IVCLSP growth inhibition (SRB), HCT-116", "settings": "48 h drug incubation", "description": "as §1, §2, §3, §4"}, "[14]": {"tested_on": "OVCAR-4", "experiment": "NCI IVCLSP growth inhibition (SRB), OVCAR-4", "settings": "48 h drug incubation", "description": "as §1, §2, §3, §4"}, "[15]": {"tested_on": "SN12C", "experiment": "NCI IVCLSP growth inhibition (SRB), SN12C", "settings": "48 h drug incubation", "description": "as §1, §2, §3, §4"}, "[16]": {"tested_on": "K-562", "experiment": "NCI IVCLSP growth inhibition (SRB), K-562", "settings": "48 h drug incubation", "description": "as §1, §2, §3, §4"}, "[17]": {"tested_on": "KM12", "experiment": "NCI IVCLSP growth inhibition (SRB), KM12", "settings": "48 h drug incubation", "description": "as §1, §2, §3, §4"}, "[18]": {"tested_on": "LOX IMVI", "experiment": "NCI IVCLSP growth inhibition (SRB), LOX IMVI", "settings": "48 h drug incubation", "description": "as §1, §2, §3, §4"}, "[19]": {"tested_on": "NCI-H23", "experiment": "NCI IVCLSP growth inhibition (SRB), NCI-H23", "settings": "48 h drug incubation", "description": "as §1, §2, §3, §4"}, "[20]": {"tested_on": "A498", "experiment": "NCI IVCLSP growth inhibition (SRB), A498", "settings": "A498; 48 h drug incubation, SRB", "description": "as §1, §2, §3, §4"}, "[21]": {"tested_on": "HOP-92", "experiment": "NCI IVCLSP growth inhibition (SRB), HOP-92", "settings": "48 h drug incubation", "description": "as §1, §2, §3, §4"}, "[22]": {"tested_on": "UO-31", "experiment": "NCI IVCLSP growth inhibition (SRB), UO-31", "settings": "48 h drug incubation", "description": "as §1, §2, §3, §4"}, "[23]": {"tested_on": "HS 578T", "experiment": "NCI IVCLSP growth inhibition (SRB), HS 578T", "settings": "48 h drug incubation", "description": "as §1, §2, §3, §4"}}, "data": [{"smiles": "COc1cc(CCc2cn(Cc3ccccc3)c3nc(N)nc(C)c23)cc(OC)c1OC", "note": "[Compound 1]", "values": [{"measurement": "GI50", "setting": "[1]", "value": 118, "unit": "nM"}, {"measurement": "level of expression of p53 (in words)", "setting": "[2]", "value": "induced the expression"}, {"measurement": "GI50", "setting": "[3]", "value": 162, "unit": "nM"}, {"measurement": "GI50", "setting": "[4]", "value": 283, "unit": "nM"}, {"measurement": "GI50", "setting": "[5]", "value": 28.8, "unit": "nM"}, {"measurement": "GI50", "setting": "[6]", "value": 254, "unit": "nM"}, {"measurement": "GI50", "setting": "[7]", "value": 595, "unit": "nM"}, {"measurement": "GI50", "setting": "[8]", "value": 273, "unit": "nM"}, {"measurement": "GI50", "setting": "[9]", "value": 173, "unit": "nM"}, {"measurement": "GI50", "setting": "[10]", "value": 47.9, "unit": "nM"}, {"measurement": "GI50", "setting": "[11]", "value": 10.1, "unit": "nM"}, {"measurement": "GI50", "setting": "[12]", "value": 563, "unit": "nM"}, {"measurement": "GI50", "setting": "[13]", "value": 286, "unit": "nM"}, {"measurement": "GI50", "setting": "[14]", "value": 821, "unit": "nM"}, {"measurement": "GI50", "setting": "[15]", "value": 537, "unit": "nM"}, {"measurement": "GI50", "setting": "[16]", "value": 84.6, "unit": "nM"}, {"measurement": "GI50", "setting": "[17]", "value": 194, "unit": "nM"}, {"measurement": "GI50", "setting": "[18]", "value": 250, "unit": "nM"}, {"measurement": "GI50", "setting": "[19]", "value": 278, "unit": "nM"}, {"measurement": "GI50", "setting": "[20]", "value": 136, "unit": "nM"}, {"measurement": "GI50", "setting": "[21]", "value": 467, "unit": "nM"}, {"measurement": "GI50", "setting": "[22]", "value": 347, "unit": "nM"}, {"measurement": "GI50", "setting": "[23]", "value": 283, "unit": "nM"}]}]}
